Structures are written as SMILES. A value given as a limit tells only on which side of the number the result lay.

The target of one assay is T1, CDK4/cyclin D3 (Homo sapiens, UniProt P11802).
T1 construct: purchased Carna Biosciences, Inc. QS S Assist CDK4/Cyclin D3_FP Kit
T1 sequence (P11802 whole entry): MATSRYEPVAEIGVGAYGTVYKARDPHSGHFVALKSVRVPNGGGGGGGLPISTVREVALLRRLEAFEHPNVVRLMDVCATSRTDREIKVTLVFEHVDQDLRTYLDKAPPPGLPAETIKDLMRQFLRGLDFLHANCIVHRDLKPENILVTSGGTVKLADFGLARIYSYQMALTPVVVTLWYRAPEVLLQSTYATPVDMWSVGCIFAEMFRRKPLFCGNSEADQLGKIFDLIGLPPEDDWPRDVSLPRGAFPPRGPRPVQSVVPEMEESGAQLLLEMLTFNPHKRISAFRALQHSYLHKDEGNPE
T1 sequence (P30281 whole entry partner): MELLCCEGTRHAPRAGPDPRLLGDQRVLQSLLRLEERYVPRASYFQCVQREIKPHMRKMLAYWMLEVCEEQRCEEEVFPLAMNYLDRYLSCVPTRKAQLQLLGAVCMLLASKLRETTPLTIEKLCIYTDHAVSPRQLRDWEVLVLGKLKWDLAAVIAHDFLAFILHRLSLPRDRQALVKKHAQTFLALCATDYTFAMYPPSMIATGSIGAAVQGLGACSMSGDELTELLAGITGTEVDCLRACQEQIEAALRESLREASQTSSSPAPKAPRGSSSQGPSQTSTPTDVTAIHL
Nature of the assay: Human CDK4/cyclin D3 inhibitory activity (QS S Assist CDK4/Cyclin D3_FP Kit, IMAP fluorescence polarization). The conditions noted are these: 50% inhibitory concentration against CDK4/cyclin D3, given as class symbol. It counts as biochemical. The essentials: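 Percent inhibition, relative to DMSO with and without enzyme, was curve-fitted to give IC50 from polarization (ex 485, em 535 nm). The 45-min room-temperature reaction used 12.5-25 ng/well enzyme, kit ATP/substrate/metal mix, and HEPES pH 7.4 buffer with Tween20 and DTT, followed by 30-min IMAP binding in the dark.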
For orientation: In fluorescence polarisation assays a small probe gives low polarisation when free and higher when bound to something large.
The compound `CO[C@H](C)c1cc2cnc(Nc3ccc(N4CCN(CCC(=O)O)CC4)nn3)nc2c(NC(C)C)n1` [Compound 684, (R)-3-(4-(6-((8-(isopropylamino)-6-(l-methoxyethyl)pyrido[3,4-d]pyrimidin-2-yl)amino)pyridazin-3-yl)piperazin-1-yl)propanoic acid] showed an IC50 of 10 to 100 nM.

Compound `CO[C@H](C)c1cc2cnc(Nc3ccc(CN4CCN(CCC(=O)O)CC4)cn3)nc2c(NC(C)C)n1` [Compound 685] registered an IC50 of 10 to 100 nM.

For `CC(C)Nc1nc([C@@H](C)O)cc2cnc(Nc3ccc(N4CC5CC(C4)C5O)nn3)nc12` (stereo partly shown) [Compound 687], the IC50 is below 10 nM. `CC(C)Nc1nc([C@@H](C)O)cc2cnc(Nc3ccc(N4CCC(C)(CO)CC4)nn3)nc12` [Compound 688] showed an IC50 below 10 nM. Regarding `CO[C@H](C)c1cc2cnc(Nc3ccc(CN4CCN(CCCC(=O)O)CC4)cn3)nc2c(NC(C)C)n1` [Compound 697], the IC50 was in the range of 10 to 100 nM. Take `CO[C@H](C)c1cc2cnc(Nc3ccc(N4CCN(CCCC(=O)O)CC4)nn3)nc2c(NC(C)C)n1` [Compound 699]: the IC50 is 10 to 100 nM. With `CC(C)Nc1nc([C@@H](C)O)cc2cnc(Nc3ccc(N4CC(F)(CO)C4)nn3)nc12` [Compound 707], the IC50 is below 10 nM.

The assay is the same for the next values; noted with them: Human CDK4/cyclin D3 inhibitory activity; read-out: CDK4 Activity symbol.
In the case of `CNC(=O)CNc1ccc(Nc2ncc3cc([C@@H](C)O)nc(NC(C)C)c3n2)nc1` [Compound 539], the IC50 fell in the range of 10 to 100 nM. On the same count and under the same terms, as for `CC(C)Nc1nc([C@@H](C)O)cc2cnc(Nc3ccc(N4CCNC(=O)C4)nn3)nc12` [Compound 540], the figure is below 10 nM; as for `CC(C)Nc1nc([C@@H](C)O)cc2cnc(Nc3ccc(OC4CCCNC4)nn3)nc12` (stereo partly shown) [Compound 541], below 10 nM. With `CO[C@H](C)c1cc2cnc(Nc3ccc(N4CCNCC(C)(C)C4=O)cn3)nc2c(NC(C)C)n1` [Compound 542], the IC50 lay in the range of 10 to 100 nM. The same measure, in the same setting: as for `CC(C)Nc1nc([C@@H](C)O)cc2cnc(Nc3ccc(N4CCNCC(C)(C)C4=O)cn3)nc12` [Compound 543], the figure is below 10 nM. Still for that read-out and setting: as for `CC(C)Nc1nc([C@@H](C)O)cc2cnc(Nc3ccc(OC4CCNC4)nn3)nc12` (stereo partly shown) [Compound 544], the figure is below 10 nM; as for `CC(C)Nc1nc([C@@H](C)O)cc2cnc(Nc3ccc(O[C@H]4CNC[C@@H]4F)nn3)nc12` [Compound 545], below 10 nM. Turning to `CC(C)Nc1nc([C@@H](C)O)cc2cnc(Nc3ccc(OC4CNC4)nn3)nc12` [Compound 546], the IC50 was below 10 nM. For `CC(C)Nc1nc([C@@H](C)O)cc2cnc(Nc3ccc(O[C@H]4CNCC[C@@H]4F)nn3)nc12` [Compound 547], the IC50 is below 10 nM. On the same count and under the same terms, as for `CNCCOc1ccc(Nc2ncc3cc([C@@H](C)OC)nc(NC(C)C)c3n2)nn1` [Compound 551], the figure is 10 to 100 nM; as for `CNCCOc1ccc(Nc2ncc3cc([C@@H](C)O)nc(NC(C)C)c3n2)nn1` [Compound 552], below 10 nM; as for `CC(C)Nc1nc([C@@H](C)O)cc2cnc(Nc3ccc(O[C@H]4CCNC[C@@H]4F)nn3)nc12` [Compound 563], below 10 nM. In the case of `CC(C)Nc1nc([C@@H](C)O)cc2cnc(Nc3ccc(O[C@@H]4CCNC[C@@H]4F)nn3)nc12` [Compound 564], the IC50 is below 10 nM. Take `CC(C)Nc1nc([C@@H](C)O)cc2cnc(Nc3ccc(O[C@H]4CCCNC4)cn3)nc12` [Compound 565]: the IC50 is below 10 nM. Same read-out and setting: as for `CC(C)Nc1nc([C@@H](C)O)cc2cnc(Nc3ccc(OC4CNC4)cn3)nc12` [Compound 568], the figure is below 10 nM; as for `CC(C)Nc1nc([C@@H](C)O)cc2cnc(Nc3ccc(OCC4CNC4)cn3)nc12` [Compound 570], below 10 nM; as for `CC(C)Nc1nc([C@@H](C)O)cc2cnc(Nc3ccc(O[C@@H]4CCCNC4)cn3)nc12` [Compound 571], below 10 nM.

In the case of `CC(C)Nc1nc(C(C)O)cc2cnc(Nc3ccc(OC4CNCCC4F)cn3)nc12` (stereo not shown) [Compound 577], the IC50 was below 10 nM. As to `CC(C)Nc1nc([C@@H](C)O)cc2cnc(Nc3ccc(OCC4(F)CNC4)cn3)nc12` [Compound 578], the IC50 was below 10 nM. `CC(C)Nc1nc([C@@H](C)O)cc2cnc(Nc3ccc(SCCN(C)C)cn3)nc12` [Compound 580]: the IC50 fell in the range of 10 to 100 nM. On the same count and under the same terms, as for `CC(C)Nc1nc([C@@H](C)O)cc2cnc(Nc3ccc(N4CCN(CC(C)(C)C)CC4)nn3)nc12` [Compound 587], the figure is below 10 nM; as for `CNC1(C)CCN(c2ccc(Nc3ncc4cc([C@@H](C)OC)nc(NC(C)C)c4n3)nn2)CC1` [Compound 594], below 10 nM; as for `CC(C)Nc1nc([C@@H](C)O)cc2cnc(Nc3ccc(N4CCN(C(C)CO)CC4=O)cn3)nc12` (stereo partly shown) [Compound 598], below 10 nM. With `CO[C@H](C)c1cc2cnc(Nc3ccc(N4CCN(C(C)(C)C)CC4)nn3)nc2c(NC(C)C)n1` [Compound 599], the IC50 lay in the range of 10 to 100 nM.

Turning to `CC(C)Nc1nc([C@@H](C)O)cc2cnc(Nc3ccc(N4CCN(CC(C)(C)C)CC4=O)cn3)nc12` [Compound 603], the IC50 was below 10 nM. The same measure, in the same setting: as for `CC(C)Nc1nc(C(C)O)cc2cnc(Nc3ccc(N4CCC(O)C(F)C4)nn3)nc12` (stereo not shown) [Compound 607], the figure is below 10 nM; as for `CC(C)Nc1nc([C@@H](C)O)cc2cnc(Nc3ccc(N4CCNCC4=O)nn3)nc12` [Compound 613], 10 to 100 nM. Regarding `CC(C)Nc1nc([C@@H](C)O)cc2cnc(Nc3ccc(CC(=O)N4CCN(CCO)CC4)cn3)nc12` [Compound 616], the IC50 was below 10 nM.

On to `CC(C)Nc1nc([C@@H](C)O)cc2cnc(Nc3ccc(N4CCC(O)C(F)(F)C4)nn3)nc12` (stereo partly shown) [Compound 617], for which the IC50 is below 10 nM. On the same count and under the same terms, as for `CC(C)Nc1nc([C@@H](C)O)cc2cnc(Nc3ccc(N4CC5(CNC(=O)C5)C4)nn3)nc12` [Compound 620], the figure is below 10 nM.

The record behind these values is patent US10124004B2, “Pyrido[3,4-d]pyrimidine derivative and pharmaceutically acceptable salt thereof” (Teijin Pharma Limited, priority 2015, dated 2018).
